The values below come from patent US20230324392A1, “METHODS AND COMPOSITIONS FOR TARGETING CYTOSOLIC DSDNA SIGNALING IN CHROMOSOMALLY UNSTABLE CANCERS” (MEMORIAL SLOAN KETTERING CANCER CENTER, priority 2020, published 2023).

Experiment [1] has as its system 4T1 tumors. The experiment can be described thus: Wild-type or cGAS-knockout orthotopic 4T1 tumors treated intratumorally with ADU-S100. The conditions noted are these: ADU-S100 10 μg intratumorally, cGAS KO vs wild-type. The experiment is classed as in vivo, mouse. The protocol:
Methods. Briefly, wild-type or cGAS-knockout 4T1 tumors were orthotopically transplanted in the mammary fat pad of BALB/c immune competent mice. cGAS was knocked out using CRISPR-Cas9. The mice were treated intratumorally with PBS (vehicle) or the STING agonist, ADU-S100 (10 μg).

Experiment [2] has as its system CT26 cells. The experiment can be described thus: Tail vein inoculation of CT26 cells in BALB/c mice, metastasis and survival. In kind it is in vivo, mouse. The conditions noted are these: CT26, BALB/c, IP, vs vehicle.
Description: Animal metastasis studies: Animal experiments were performed in accordance with protocols approved by the MSKCC Institutional Animal Care and Use Committee. […] There was no need to randomize animals. Investigators were not blinded to group allocation. For tail vein injections, 5×10^4 4T1, 2.5×10^4 B16F10, or 10^5 CT26 cells were injected into the tail vein of 6-7-week old BALB/c (4T1 and CT26) or C57BL/6 (B16F10) mice. Metastasis was primarily assessed through overall survival. Overall survival endpoint was met when the mice died or met the criteria for euthanasia under the IACUC protocol. Animals were censored when death was confirmed to have occurred due to metastasis-unrelated causes such as injury or death during injection, surgery, or anesthesia. Surface lung metastases were assessed at endpoint by direct visual examination after euthanasia at which points lungs were perfused and fixed in 4% paraformaldehyde (4T1 and B16F10 experiments) or stained using India-ink (CT26 experiments). […] H-151 was reconstituted in DMSO with concentration of 100 mM. Each mouse was injected intraperitoneally with 7.5 μL of H-151 stock solution in 200 μL of PBS with 0.1% Tween −80.
Experiment [3] relates to 4T1 cells. The experiment can be described thus: Wound migration of control, Cgas-KO and Enpp1-KO 4T1 cells. In kind it is cell-based, mouse. The conditions noted are these: cGAMP 5.5 μm. The protocol:
Cellular growth and migration assays: Cellular proliferation rates were assessed by seeding 5×10^4 control or Enpp1-KO 4T1 cells in 6-well plates (3-4 replicates per condition). Cells were seeded in the regular RPMI medium with 10% Fetal bovine serum (FBS). About 48 hours before cells growing to form a 90% confluency monolayer, regular media were replaced with media containing indicated drugs. […] Fresh medium was changed every 12 hours. When reaching ˜90% confluency, cells were treated with RPMI medium containing 10 μm Mitomycin C for 1 hour. Wounds were formed using sterile P200 pipette tips. Images of the wounds were captured every 8 hours and were analyzed with a wound healing tool macro in ImageJ (dev.mri.cnrs.fr/projects/imagej-macros/wiki/Wound_Healing_Tool).
Through its ability to bind extracellular adenosine receptors in both tumor and immune cells, adenosine promotes cancer cell migration and is a potent immune suppressor, respectively (FIG. 12B).

The test system of experiment [4] is 4T1 cells. The experiment can be described thus: Fluorescence-based indirect adenosine measurement after exogenous cGAMP. In kind it is cell-based, mouse. The conditions noted are these: with and without EHNA.
Experiment [5] has as its system 4T1 cells. The experiment can be described thus: Ifnb1 and ISG expression in transfected 4T1 cells (qPCR). The experiment is classed as cell-based, mouse. The protocol: Quantitative PCR for STING inhibition study: RNA was extracted from cells with Trizol (Invitrogen, Carlsbad, CA, #15596026). cDNA was synthesized using the RNA to cDNA EcoDry™ Premix (Double Primed) kit (Takara #639549). Real-time PCR was performed to measure the relative mRNA expression levels of ISGs and the control GAPDH using Luna® Universal qPCR Master Mix (NEB, IPSWICH, MA, M3003L). The qPCR reaction and analysis were performed on a QuantStudio 6 platform (Life technology, Carlsbad, CA). The sequence of primers for Ccl5 is 5′-[…]-3′ and 5′-[…]-3′. The sequence of primers for Cxcl10 is 5′-[…]-3′ and 5′-[…]-3′, The sequence of primers for Isg15 is 5-A AAGAA-[…]-3′ and 5′-[…]-3′. The sequence for primers for Gapdh is 5′-[…]-3′ and 5′-[…]-3′.
Despite constitutive cGAS-STING activation, 4T1 cells had low baseline expression of Ifnb1 and other ISGs. […] Similar to our in vitro findings, control, cGAS-KO, and STING-KO tumors had low basal—and nearly undetectable—levels of IFN-β, when compared to those observed during active anti-tumor immune responses arising from immune checkpoint blockade of a responsive tumor model used as a reference control (FIG. 6D).

`Nc1ncnc2c1ncn2[C@@H]1O[C@@H]2COP(=O)([S-])O[C@@H]3[C@H](O)[C@@H](COP([O-])(=S)O[C@H]2[C@H]1O)O[C@H]3n1cnc2c(N)ncnc21.[Na+].[Na+]` (stereo partly shown) [ADU-S100]: the “tumor sensitivity (tumor volume over time)” value in experiment [1] is “most sensitive condition”.
On to `CCc1ccc(NC(=O)Nc2c[nH]c3ccccc23)cc1` [H-151], for which, in experiment [2], the “survival of tumor bearing mice” value is on record as “significant prolongation in overall survival”.
`Nc1nc2c(ncn2[C@@H]2O[C@@H]3COP(=O)(O)O[C@H]4[C@@H](O)[C@H](n5cnc6c(N)ncnc65)O[C@@H]4COP(=O)(O)O[C@@H]2[C@@H]3O)c(=O)[nH]1` [cGAMP, 2′3′-cGAMP]: the “rescue of cancer cell migration by exogenous cGAMP” value in experiment [3] was “rescued migration only in Cgas-KO but not Enpp1-KO tumor cells”. Moreover, the “H2O2 production after addition of exogenous cGAMP” value in experiment [4] is “concentration-dependent increase”. Besides, in experiment [5], the “increase in ISG expression upon transfection” value is recorded as about 2 fold and the “induction in Ifnb1 upon transfection” value was “no induction”.
For the compound Poly(I.C), the “induction of ISGs upon transfection” value in experiment [5] was “robust induction of ISGs”.
